Experimental data taken from patent US8686050B2, “Diglycidic ether derivative therapeutics and methods for their use” (British Columbia Cancer Agency Branch, priority 2008, dated 2014).
“Also recorded” adds a separate entry of the source. Counter-ions that a name gives are not always drawn.

Target: T1, AR (Homo sapiens, UniProt P10275, T878A)
T1 sequence (P10275 1-920 T878A): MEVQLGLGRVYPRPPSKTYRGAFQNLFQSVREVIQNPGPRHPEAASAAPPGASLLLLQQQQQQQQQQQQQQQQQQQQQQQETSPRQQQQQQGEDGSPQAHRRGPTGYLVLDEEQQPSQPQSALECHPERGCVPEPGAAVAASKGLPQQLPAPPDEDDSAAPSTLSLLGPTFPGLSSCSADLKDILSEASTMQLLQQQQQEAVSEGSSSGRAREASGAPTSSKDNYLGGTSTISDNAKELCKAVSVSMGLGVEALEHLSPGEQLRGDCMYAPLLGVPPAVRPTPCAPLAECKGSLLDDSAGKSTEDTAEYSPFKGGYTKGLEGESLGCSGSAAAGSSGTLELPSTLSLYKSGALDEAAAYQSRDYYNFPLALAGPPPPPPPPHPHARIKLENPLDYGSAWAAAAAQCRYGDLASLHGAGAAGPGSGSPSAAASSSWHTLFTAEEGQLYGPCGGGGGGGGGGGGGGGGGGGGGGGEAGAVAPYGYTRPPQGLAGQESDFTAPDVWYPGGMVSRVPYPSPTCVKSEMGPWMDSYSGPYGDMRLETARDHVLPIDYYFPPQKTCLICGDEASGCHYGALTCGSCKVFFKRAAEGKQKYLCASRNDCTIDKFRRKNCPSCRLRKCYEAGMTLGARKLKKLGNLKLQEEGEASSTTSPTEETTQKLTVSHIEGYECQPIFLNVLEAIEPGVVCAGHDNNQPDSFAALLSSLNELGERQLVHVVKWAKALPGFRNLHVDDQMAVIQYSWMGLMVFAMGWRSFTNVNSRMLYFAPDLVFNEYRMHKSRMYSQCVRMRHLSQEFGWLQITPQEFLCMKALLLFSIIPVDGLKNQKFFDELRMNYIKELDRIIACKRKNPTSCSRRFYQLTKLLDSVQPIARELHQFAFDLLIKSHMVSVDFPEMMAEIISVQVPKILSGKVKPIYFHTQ
Assay: Western blot of AR protein in LNCaP whole cell lysates
Assay type: cell-based
Set-up: LNCaP cells express endogenous AR and secrete prostate-specific antigen (PSA); endogenous in cells; host or cells: LNCaP

`CC(C)(c1ccc(OCC(O)CO)cc1)c1ccc(OCC(O)CCl)cc1` (centres unmarked) [185-9-2, BADGE.HCL.H2O] was tested, and the “levels of AR protein in whole cell extracts” value (LNCaP cells treated 3 or 16 hours) was “does NOT decrease levels of AR protein; also recorded: not decreased” and the “levels of AR protein, long term incubation” value (LNCaP cells, 48 hrs, presence or absence of DHT) was “did not reduce levels of AR protein”.
